{"source": "patent US20100298252A1", "about": "“METHODS AND COMPOSITIONS FOR OPHTHALMIC TREATMENT OF FUNGAL AND BACTERIAL INFECTIONS” (priority 2004, published 2010)", "assay_type_in_all_cases": "cell-based", "key": {"Enterococcus faecalis [1]": {"system": "Enterococcus faecalis", "assay": "Antibiotic resistance profile by disc diffusion; further: key: R = resistant; I = intermediate; S = sensitive", "set-up": "scale not given here", "settings": "disc diffusion on MHA", "experimental": "(§1) The organisms of this study were isolated from human burn patients. They included strains of methicillin resistant Staphylococcus aureus, and vancomycin resistant strains of Pseudomonas aeruginosa and Enterococcus faecalis. The bacterial isolates were propagated in or on Brain Heart Infusion broth (BHI), Mueller-Hinton Broth (MHB), blood agar (BA), Mueller-Hinton agar (MHA), enterococcus agar (EA), or 2× nutrient agar (2×NA).\n(§2) Antibiotic resistance profiles were determined by the disc diffusion method on MHA (5)."}, "Pseudomonas aeruginosa [2]": {"system": "Pseudomonas aeruginosa", "assay": "Antibiotic resistance profile by disc diffusion", "set-up": "scale not given here", "settings": "disc diffusion on MHA", "experimental": "as §1, §2"}, "Staphylococcus aureus [3]": {"system": "Staphylococcus aureus", "assay": "Antibiotic resistance profile by disc diffusion", "set-up": "scale not given here", "settings": "disc diffusion on MHA", "experimental": "as §1, §2"}, "Enterococcus faecalis [4]": {"system": "Enterococcus faecalis", "assay": "MIC and FIC index, microtiter checkerboard / broth dilution", "settings": "Ent. faecalis; antibiotic alone", "experimental": "(§3) Agents and Chem. 210-217. (1967) and Sparks et al., Vet. Res. Comm. 18, 241-249 (1994), incorporated herein by reference in their entireties. […] Then 0.05 ml of an 18-hour old culture of a test organism, containing 10^6 colony-forming units (CFU)/ml, was added to each well. Controls for the culture and media were included in each plate. Plates were covered and incubated at 37° Celsius for 18-24 hours. […] To generate isobolograms, FICs of the two test solutions were plotted individually on the x-axis and y-axis to determine the effect of combining the two test solutions on bacterial growth. A line that curves away from, the zero point and the coordinates indicates antagonism. […] A numerical score or fractional inhibitory concentration (FIC) index was determined. The FIC index is equal to the sum of the values of FIC for the individual drugs: […] Am. Soc. Microbiol. Williams and Wilkins, Baltimore 1970), incorporated herein by reference in its entirety. […] Ps. aeruginosa, and Ent. faecalis."}, "Pseudomonas aeruginosa [5]": {"system": "Pseudomonas aeruginosa", "assay": "MIC and FIC index, microtiter checkerboard / broth dilution", "settings": "Ps. aeruginosa; antibiotic alone", "experimental": "as §3"}, "Staphylococcus aureus [6]": {"system": "Staphylococcus aureus", "assay": "MIC and FIC index, microtiter checkerboard / broth dilution", "settings": "Staph. aureus; antibiotic alone", "experimental": "as §3"}, "Enterococcus faecalis [7]": {"system": "Enterococcus faecalis", "assay": "Minimal Bactericidal Concentration, broth-dilution microtiter", "text": "(§4) 307 (pub: Am. Soc. Microbiol. Williams and Wilkins, Baltimore 1970), incorporated herein by reference in its entirety."}, "Pseudomonas aeruginosa [8]": {"system": "Pseudomonas aeruginosa", "assay": "Minimal Bactericidal Concentration, broth-dilution microtiter", "settings": "Ps. aeruginosa", "text": "as §4"}, "Staphylococcus aureus [9]": {"system": "Staphylococcus aureus", "assay": "Minimal Bactericidal Concentration, broth-dilution microtiter", "settings": "Staph. aureus", "text": "as §4"}, "[10]": {"settings": "neomycin co-administered with EDTA, 50 mM Tris"}}, "note": "Values joined by “and” are separate entries in the source; they are usually repeats but may differ in a detail not shown here. Identical values can stand only once.", "data": [{"substance": "neomycin", "values": [{"measurement": "Antibiotic resistance profile", "setting": "Enterococcus faecalis [1]", "result": "R"}, {"measurement": "Antibiotic resistance profile", "setting": "Pseudomonas aeruginosa [2]", "result": "R"}, {"measurement": "Antibiotic resistance profile", "setting": "Staphylococcus aureus [3]", "result": "R"}, {"measurement": "MIC Individually Administered, antibiotic", "setting": "Enterococcus faecalis [4]", "result": 3130, "unit": "µg/mL"}, {"measurement": "MIC Individually Administered, antibiotic", "setting": "Pseudomonas aeruginosa [5]", "result": 1000, "unit": "µg/mL"}, {"measurement": "MIC Individually Administered, antibiotic", "setting": "Staphylococcus aureus [6]", "result": 3130, "unit": "µg/mL"}, {"measurement": "MBC Individually Administered", "setting": "Enterococcus faecalis [7]; En. faecalis, neomycin alone, 50 mM Tris", "result": 25000, "unit": "µg/mL"}, {"measurement": "MBC Co-administered", "setting": "Enterococcus faecalis [7]; En. faecalis, neomycin co-administered with EDTA, 50 mM Tris", "result": 6250, "unit": "µg/mL"}, {"measurement": "Decrease of MBC value when EDTA and neomycin combined vs individually administered", "setting": "Enterococcus faecalis [7]; Ent. faecalis", "result": 75, "unit": "%"}, {"measurement": "Decrease of MBC value when EDTA and neomycin combined vs individually administered", "setting": "Pseudomonas aeruginosa [8]", "result": 99.2, "unit": "%"}, {"measurement": "MBC Individually Administered", "setting": "Pseudomonas aeruginosa [8]; neomycin alone, 50 mM Tris", "result": 5000, "unit": "µg/mL"}, {"measurement": "MBC Co-administered", "setting": "Pseudomonas aeruginosa [8]; [10]", "result": 40, "unit": "µg/mL"}, {"measurement": "Decrease of MBC value when EDTA and neomycin combined vs individually administered", "setting": "Staphylococcus aureus [9]", "result": "about 50% and 50%"}, {"measurement": "MBC Individually Administered", "setting": "Staphylococcus aureus [9]; neomycin alone, 50 mM Tris", "result": 3130, "unit": "µg/mL"}, {"measurement": "MBC Co-administered", "setting": "Staphylococcus aureus [9]; [10]", "result": 1560, "unit": "µg/mL"}]}]}
